Test results: patent US11382907B2, “Methods and compositions for treating aging-associated impairments using CCR3-inhibitors” (Alkahest, Inc., priority 2017, dated 2022)

Columns and labels:
[1] = Compound plasma levels in mice under Alzet pump infusion; format: in vivo, C57BL/6 mice; conditions: C57BL/6, mouse, other: Alzet pump infusion (perfused), 25 µg/hr, mean±s.e.m., read-out: level of the compound in plasma
Method: Compound levels were measured by MS/MS by Quintara (Hayward, Calif.).
FIG. 6 depicts the levels of the compound of the invention that were detected in mouse CSF for both the young and old groups (both below 10 nM).

[2] = tested on: doublecortin-positive cells in the hippocampus; test: Histology: doublecortin (DCX) positive cells in hippocampus of aged mice; format: in vivo, C57Bl/6 mice; conditions: 18-month-old mice; four-week subcutaneous dosing by pump, versus IgG control
Text: Mice were taken down on the day following the end of behavior testing. Anesthesia was induced by 2,2,2-tribromoethanol and mice were subsequently perfused with 0.9% saline trans-cardially. The brains were dissected and cut sagitally in two even halves. One half was snap frozen for later use in dry ice, and the other was fixed in 4% paraformaldehyde in PBS for use in immunohistochemistry. After two days of fixation, the hemibrains were transferred to a 30% sucrose in PBS solution and changed after two days. Hemibrains were sectioned at 30 um on a microtome at −22° C. Brain sections were stored in cryoprotectant media at −20° C. until needed for staining. Blocking was done on free floating sections in the appropriate serum at 10% serum in PBST 0.5%. Primary antibodies were incubated overnight at 4 C. For light microscopy, the following antibodies were used in the given concentrations: DCX, 1:200, Santa Cruz BioTech, CD68, 1:1000. AbD Serotec. Secondary biotinylated antibodies were applied the next day at a concentration of 1:300. Staining visualization was achieved by reaction with the ABC kit (Vector) and diaminobenzidine (Sigma). Dehydration of the mounted slides was achieved using ethanol and xylene dips. Images were acquired on a Leica light microscope at 5× magnification. […]

[3] = tested on: twenty-four-month-old C57 mice; test: T maze test in aged mice; format: in vivo; conditions: 4 weeks continuous infusion by osmotic pump
Method: The Water Maze was filled with water at least 24 hours prior to the test to allow it to reach room temperature. The water was dyed with white latex paint to make the animals visible for tracking and to allow for the use of a hidden platform. Two distinct visual cues were placed at the end of both T-arms of the T-Maze insert. On day 1 animals were given 4 trials each with a visible platform and a 30 min inter-trial interval. Animals were given 60 seconds to reach the platform. […] The goal arm was switched after every third mouse and both treatment groups had equal numbers of right and left turn goal arms. After each trial the mice were placed in an empty cage with blue pads and allowed to dry off under a red light lamp before being placed back into their home cage. Day 2 is the testing day, where animals are subjected to the same test of 4 trials each and a 30 min inter trial interval, but with a hidden platform. Animals were scored for right or wrong choice and for latency to reach the platform, and a binomial test was conducted to compare success rates between control and compound-treated mice. All trials were recorded using TopScan.
Twenty-four-month-old C57 mice were treated for 4 weeks with continuous infusion of Compound 1 or vehicle by Alzet osmotic pump, which were implanted to continuously deliver the two treatments. […]

IL-1beta mRNA = test: qPCR of IL-1beta mRNA in cortical brain tissue of mice given daily LPS; format: in vivo, C57Bl/6 mice; conditions: 3-month-old mice, daily LPS IP 7 weeks, 30 mg/kg PO BID 4 weeks
Text: Snap-frozen hemibrains were dissected out into cortex, hippocampus, striatum, and thalamus. The cortex was split into three homogeneous parts and one part was used for RNA isolation. RNA was isolated using the Prolink RNA Mini Kit (Thermo Fisher Scientific #12183025). cDNA was made using Taqman RT Kit (Thermo Fisher Sci #N8080234). qPCR was run on a Quant Studio 6 using custom made Taqman Multiplex Primers for IL-1beta and GAPDH. All samples were run together on a single plate and analyzed for ddCT relative to their endogenous control first and then relative to the control group.
Three-month-old C57 mice were given daily doses of lipopolysaccharide (LPS) 0.5 mg/kg IP to induce inflammation and treated with Compound 1 for up to 4 weeks. […]

concentration at 4 weeks ([1]; old (18-month) mice perfused 4 weeks at 0.5 μL/hr of 50 mg/mL solution): 355 ± 43 nM
concentration at 2 weeks ([1]; young (2-month-old) mice perfused 2 weeks at 0.5 μL/hr of 50 mg/mL solution): 352 ± 31 nM
Compound: Cc1cc(C(=O)N(C)C)cc(NC(=O)[C@H]2CCC(=O)N2C2CCN(Cc3ccc(Cl)c(C)c3)CC2)n1 [Compound 1]
doublecortin-positive cells in the hippocampus [2]: increased the numbers of doublecortin-positive cells
T maze success versus vehicle (binomial test) [3]: succeeded more than vehicle-treated mice
IL-1beta mRNA level in brain (IL-1beta mRNA): significant decrease in IL-1beta expression
